Experimental data published in US10617674B2, “Dosage regimen for the treatment of acute exacerbations of inflammatory conditions” (MEREO BIOPHARMA 1 LIMITED, priority 2016, dated 2020).

Assays:
[1] = Oral bioavailability in the dog; conditions: in vivo, estimated
[2] = PK profile of the Day 1, 3 and 5 oral dosing regimen (drug levels); format: in vivo, human
From the text: This study investigated the efficacy, safety and tolerability of two different dosing regimens of 3-[5-amino-4-(3-cyanobenzoyl)-pyrazol-1-yl]-N-cyclopropyl-4-methyl benzamide added to SoC (systemic corticosteroids and/or antibiotics) versus placebo added to SoC in subjects with severe acute exacerbations of asthma. The proposed doses take into account trough levels based on PK modelling to ensure that the drug rapidly achieves and remains at effective concentrations between doses.
Overall, a dose-dependent reduction in TNF-α levels has been observed following doses ranging from 0.1 to 75 mg 3-[5-amino-4-(3-cyanobenzoyl)-pyrazol-1-yl]-N-cyclopropyl-4-methylbenzamide, although flattening of this effect to between 45 to 50% of placebo levels occurred between doses of 30 and 75 mg. A number of PK studies have been performed looking at both dosing intervals (Days 1, 3 and 5 (FIGS. 1-4, top panels) versus Days 1, 4 and 7 (FIGS. 1-4 bottom panels)), as well as dose levels (approximately 75/40/40 mg (FIG. 1); approximately 75/20/20 (FIG. 2); approximately 40/40/40 mg (FIG. 3); approximately 40/20/20 mg (FIG. 4), etc.). Based on exposures of the various regimens, there is limited benefit in dosing beyond Day 5 for a typical exacerbation.

[3] = Plasma protein binding, free fraction in human plasma samples; format: in vitro ADME
p38a and p3813 = experiment: Estimated enzyme inhibition from drug levels relative to Ki and IC50
Method: The concentration based on free fraction is at or above 740 nM for the duration of the dosing interval. Cmax is approximately 2 μM based on the first dose.

[4] = Oral bioavailability in the rat; conditions: in vivo, estimated
p3813 = p3813 (Homo sapiens, UniProt Q15759); experiment: p3813 kinase K (Ki) and IC50 values; format: biochemical
[5] = Oral bioavailability in the monkey; conditions: in vivo, estimated
p38a = p38a (Homo sapiens, UniProt Q16539); experiment: p38a kinase K (Ki) and IC50 values; format: biochemical
p38a, sequence (Q16539 whole entry): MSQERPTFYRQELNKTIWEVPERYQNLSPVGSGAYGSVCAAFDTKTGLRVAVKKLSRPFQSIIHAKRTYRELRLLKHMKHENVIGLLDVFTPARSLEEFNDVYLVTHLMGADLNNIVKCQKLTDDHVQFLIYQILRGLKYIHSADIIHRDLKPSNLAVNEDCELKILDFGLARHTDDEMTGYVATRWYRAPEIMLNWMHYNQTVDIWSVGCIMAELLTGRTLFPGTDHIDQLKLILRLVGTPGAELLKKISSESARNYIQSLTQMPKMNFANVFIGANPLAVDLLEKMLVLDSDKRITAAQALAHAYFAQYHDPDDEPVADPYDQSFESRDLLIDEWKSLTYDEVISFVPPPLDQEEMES

p3813, sequence (Q15759 whole entry): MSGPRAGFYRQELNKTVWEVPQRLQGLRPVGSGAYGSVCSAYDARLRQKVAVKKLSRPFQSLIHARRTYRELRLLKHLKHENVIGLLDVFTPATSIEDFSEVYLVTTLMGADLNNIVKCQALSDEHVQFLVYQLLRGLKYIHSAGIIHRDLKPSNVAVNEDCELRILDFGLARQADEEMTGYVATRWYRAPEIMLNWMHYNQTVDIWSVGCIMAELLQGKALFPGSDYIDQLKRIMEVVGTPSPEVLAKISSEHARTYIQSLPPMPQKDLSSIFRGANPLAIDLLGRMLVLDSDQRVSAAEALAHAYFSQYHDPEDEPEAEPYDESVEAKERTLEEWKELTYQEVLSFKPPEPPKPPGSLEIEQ

bioavailability [1]: 87% | drug levels maintained ([2]; dosing at Day 1, 3 and 5): above 220 ng/mL | plasma concentration ([2]; dosing at Day 1, 3 and 5): 5700 nM | concentration based on free fraction ([2]; for the duration of the dosing interval): ≥ 740 nM | Cmax ([2]; human, plasma, oral, based on the first dose): ~2000 nM | fraction unbound [3]: 0.13 to 0.25 | duration of >99% enzyme inhibition (p38a and p3813): 6 days | enzyme inhibition (p38a and p3813): > 99% | bioavailability [4]: 93% | IC50 (p3813): 0.106 µM | Ki (p3813): 0.072 µM | bioavailability [5]: 90% | IC50 (p38a): 0.037 µM | Ki (p38a): 0.049 µM
Compound: Cc1ccc(C(=O)NC2CC2)cc1-n1ncc(C(=O)c2cccc(C#N)c2)c1N [3-[5-amino-4-(3-cyanobenzoyl)-pyrazol-1-yl]-N-cyclopropyl-4-methylbenzamide]
